The source of these data is PubChem BioAssay (NCI).

Structures are written as SMILES.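 The compound was tested at five concentrations on cells cultured in 96-well plates, with a 48-hour exposure period. GI50: concentration for 50% inhibition of growth. TGI: concentration producing complete growth inhibition.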 A value given as a limit tells only on which side of the number the result lay.

In general, TGI refers to the concentration at which net growth stops. Lower therefore signals greater sensitivity of the cells. For orientation: GI50 means the concentration giving 50% growth inhibition.

Some test systems named below: UACC-257 melanoma; EKVX NSCLC; K-562 leukemia; IGROV1 ovarian; HCC-2998 colon; NCI-H522 lung; SW-620 colon; UACC-62 melanoma; OVCAR-8 ovarian; SK-MEL-5 melanoma.
What all share (assay): DTP human tumour cell line panel, 48 h

For the molecule `Cc1cc(C)c(C(=O)OC(c2ccccc2)C(c2ccccc2)N2CCOCC2)c(C)c1` (stereo unspecified), the TGI in the test on UACC-257 melanoma, with EKVX NSCLC, with K-562 leukemia, in the test with IGROV1 ovarian, in the test with HCC-2998 colon and with NCI-H522 lung was above 100 µM in each case. For the same molecule, the TGI with SW-620 colon and in the test with UACC-62 melanoma was above 100 µM in each case.

In the case of `Fc1ccc(-c2ncn(C3CCNCC3)c2-c2ccnc(Oc3cccc(F)c3)n2)cc1`, the GI50 was above 25 µM in the test with EKVX NSCLC; 6.7 µM in the test on K-562 leukemia; 12.4 µM in the test with IGROV1 ovarian; above 25 µM in the test on OVCAR-8 ovarian; 7.14 µM in the test on HCC-2998 colon; above 14700 nM in the test on NCI-H522 lung. Besides, the GI50 in the test with SW-620 colon is 5.54 µM; in the test with SK-MEL-5 melanoma it was 4.04 µM; in the test on UACC-62 melanoma, 10.5 µM. The TGI in the test with EKVX NSCLC was above 25 µM; in the test with K-562 leukemia, 16.5 µM; with IGROV1 ovarian, above 25 µM; in the test on OVCAR-8 ovarian, above 25 µM; in the test on HCC-2998 colon it was above 25 µM; with NCI-H522 lung, above 25 µM. Besides, the TGI is above 14.7 µM in the test with SW-620 colon, 8.73 µM with SK-MEL-5 melanoma and above 18.6 µM with UACC-62 melanoma.

For `CC(=O)N1CC(F)(F)c2c(Sc3ncc(N4CCC5(CC4)COC[C@H]5N)nc3N)cccc21`, the GI50 is 22.8 µM in the test with UACC-257 melanoma; 8.27 µM in the test with EKVX NSCLC; 2.11 µM in the test on K-562 leukemia; 2.47 µM in the test with IGROV1 ovarian; 35 µM in the test on OVCAR-8 ovarian; 28.3 µM in the test on HCC-2998 colon. For the same molecule, the results for the GI50 in the test with SW-620 colon, in the test on SK-MEL-5 melanoma and with UACC-62 melanoma were 16.8 µM, 16 µM and 18 µM, respectively. In addition, the TGI in the test with UACC-257 melanoma is 62 µM; in the test with EKVX NSCLC it was above 100 µM; in the test with K-562 leukemia, 20.7 µM; in the test with IGROV1 ovarian, 86.9 µM; with OVCAR-8 ovarian, above 100 µM; with HCC-2998 colon it was 94.1 µM. Also, the TGI in the test with SW-620 colon turned out to be 54.4 µM; in the test with SK-MEL-5 melanoma, 30.1 µM; in the test on UACC-62 melanoma it was 36.1 µM.

Consider `CCCCCCCCCC(=O)CC(=O)c1c(O)cccc1O`, for which the concentration for total growth inhibition (TGI) in the test on UACC-257 melanoma was above 100 µM; with EKVX NSCLC, 86.9 µM; with K-562 leukemia it was 86 µM; with IGROV1 ovarian, above 100 µM; with OVCAR-8 ovarian, above 100 µM; in the test with HCC-2998 colon, above 100 µM. Moreover, the TGI in the test with NCI-H522 lung is 89.7 µM; with SW-620 colon, 83.2 µM; with UACC-62 melanoma, above 100 µM.

Turning to `COc1ccc(/C=C2\COc3ccc(-c4ccccc4)cc3C2=O)cc1O`, the GI50 in the test on EKVX NSCLC was 6.71 µM; in the test on K-562 leukemia it was 3.6 µM; in the test with IGROV1 ovarian it was 4.37 µM; with OVCAR-8 ovarian, 2.43 µM; with HCC-2998 colon, 3.31 µM; in the test on NCI-H522 lung it was 2400 nM. The GI50 in the test on SW-620 colon was 1.82 µM; in the test on SK-MEL-5 melanoma, 1.51 µM; with UACC-62 melanoma it was 3.59 µM. Also, the TGI is above 100 µM with EKVX NSCLC; above 100 µM with K-562 leukemia; 15.9 µM with IGROV1 ovarian; 6.56 µM with OVCAR-8 ovarian; 10.3 µM with HCC-2998 colon; 10.5 µM in the test on NCI-H522 lung. In addition, the TGI in the test with SW-620 colon was found to be 3.72 µM; in the test on SK-MEL-5 melanoma it was 3.68 µM; in the test with UACC-62 melanoma, 18.1 µM.

As for `CCC1(OC(C)=O)C(=O)OCc2c1cc1n(c2=O)Cc2cc3ccccc3nc2-1` (stereo unspecified), the concentration for total growth inhibition (TGI) with UACC-257 melanoma, in the test on EKVX NSCLC, in the test on K-562 leukemia, in the test with IGROV1 ovarian, in the test with OVCAR-8 ovarian and with HCC-2998 colon was above 100 µM in each case. The figures for the TGI with NCI-H522 lung, in the test with SW-620 colon and in the test with SK-MEL-5 melanoma were 15.2 µM, above 100 µM and 4 µM, respectively.

Turning to `O=C(/C=C/c1cccc(Cl)c1)c1ccc(Cl)cc1Cl`, the GI50 was 12.8 µM with EKVX NSCLC; 2.86 µM with K-562 leukemia; 7.56 µM with IGROV1 ovarian; 12 µM with OVCAR-8 ovarian; 1.14 µM with HCC-2998 colon; 1850 nM in the test on NCI-H522 lung. The GI50 was 2.36 µM with SW-620 colon, 8.78 µM in the test with SK-MEL-5 melanoma and 11.1 µM in the test with UACC-62 melanoma. The TGI in the test on EKVX NSCLC is 34.4 µM; with K-562 leukemia, above 50 µM; with IGROV1 ovarian it was above 50 µM; in the test with OVCAR-8 ovarian, 36.9 µM; with HCC-2998 colon, 2.52 µM; in the test with NCI-H522 lung, 15.6 µM. The total growth inhibition concentration (TGI) worked out at 38.7 µM in the test on SW-620 colon, 17.5 µM in the test with SK-MEL-5 melanoma and 29 µM in the test with UACC-62 melanoma.

As to `O=C1/C(=C/c2cccs2)CCC/C1=C\c1cccs1`, the GI50 in the test on UACC-257 melanoma is 79.1 µM; in the test on K-562 leukemia it was above 100 µM; in the test with IGROV1 ovarian, 30.3 µM; in the test on OVCAR-8 ovarian, 51.6 µM; with HCC-2998 colon, above 100 µM; with NCI-H522 lung, 40100 nM. Besides, the figures for the GI50 in the test with SW-620 colon, with SK-MEL-5 melanoma and with UACC-62 melanoma were above 100 µM, above 100 µM and above 54.3 µM, respectively. Besides, the TGI with UACC-257 melanoma is above 100 µM; in the test on K-562 leukemia, above 100 µM; with IGROV1 ovarian it was 98.5 µM; in the test on OVCAR-8 ovarian, above 100 µM; with HCC-2998 colon, above 100 µM; in the test on NCI-H522 lung it was above 100 µM. For the same molecule, the TGI with SW-620 colon, in the test with SK-MEL-5 melanoma and in the test on UACC-62 melanoma was above 100 µM in each case.

As for `COc1cc(C2C(C(=O)Nc3ccccc3)=C(C)NC(C)=C2C(=O)Nc2ccccc2)ccc1O`, the TGI is above 100 µM in the test on UACC-257 melanoma; above 100 µM with EKVX NSCLC; above 100 µM in the test with K-562 leukemia; above 100 µM in the test on IGROV1 ovarian; 85.1 µM in the test with OVCAR-8 ovarian; above 100 µM in the test on HCC-2998 colon. In the test on SW-620 colon, the TGI was above 100 µM.

As for `COc1cccc(C2C(C(=O)Nc3cc(=O)n(C)c(=O)n3C)=C(C)NC(C)=C2C(=O)Nc2cc(=O)n(C)c(=O)n2C)c1O`, the TGI with UACC-257 melanoma, with EKVX NSCLC, in the test on K-562 leukemia, in the test on IGROV1 ovarian, in the test with OVCAR-8 ovarian and in the test on HCC-2998 colon was above 100 µM throughout. Further, the total growth inhibition concentration (TGI) with NCI-H522 lung, in the test on SW-620 colon and in the test on SK-MEL-5 melanoma was above 100 µM in each case.

In the case of `CCOC(=O)C(C)(C)Oc1ccc2c(-c3ccc(Cl)cc3)cc(=O)oc2c1`, the TGI in the test on UACC-257 melanoma, in the test with EKVX NSCLC, in the test on K-562 leukemia, with IGROV1 ovarian, in the test with OVCAR-8 ovarian and in the test on HCC-2998 colon was above 100 µM in each case. Besides, the TGI with SW-620 colon, with SK-MEL-5 melanoma and in the test on UACC-62 melanoma was above 100 µM throughout.
